This note sets out measurements from patent US20240059703A1 (AMGEN INC., priority 2021, published 2024).

In experiment [1] the target is KRAS G12C (Homo sapiens (Human), UniProt P01116, C118A/G12C). Description: 2 h coupled exchange assay. As to conditions: Avg 2 h Coupled exchange IC50, 2 h compound pre-incubation. Type of experiment: biochemical. The method, then: The term “2 h coupled exchange assay” or “20 h coupled exchange assay” as used herein refers to the assay described in the Section entitled “BIOLOGICAL EVALUATION.”
KRAS G12C, sequence (P01116 other isoform, or with tags, fused parts or gaps G12C/C118A): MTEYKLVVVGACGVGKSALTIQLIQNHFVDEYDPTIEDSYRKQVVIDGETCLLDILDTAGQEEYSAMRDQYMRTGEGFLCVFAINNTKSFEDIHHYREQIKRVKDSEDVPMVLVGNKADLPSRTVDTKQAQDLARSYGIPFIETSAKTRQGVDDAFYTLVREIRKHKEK

Experiment [2] relates to MIA PaCa-2 (human pancreatic carcinoma) cells. Description: Cell Viability Assay (CellTiter-Glo), MIA PaCa-2. Type of experiment: cell-based. The note with it: Homo sapiens, MIA PaCa-2, 72 h. The protocol:
Serially-diluted compound or DMSO was added to the cells, and plates were incubated at 37° C., 5% CO2 for 72 h. Cell viability was measured using a CellTiter-Glo® Luminescent Cell Viability Assay kit (Promega) according to the manufacturer's protocol. The luminescence signal of treated samples was normalized to DMSO control, and data were analyzed using a 4-parameter logistic model to calculate IC50 values.
A general note: Cellular ATP, detected with luciferase, serves as a proxy for viable cell number.

Experiment [3] deals with A549 (human lung carcinoma) cells. Description: Cell Viability Assay (CellTiter-Glo), A549. Type of experiment: cell-based. As to conditions: Homo sapiens, A549, 72 h. The essentials:
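Luminescent ATP read-out (CellTiter-Glo) after 72 h compound treatment of cells seeded overnight at 1.67E+04 cells/mL in RPMI 1640, 10% FBS; signal relative to DMSO, IC50 by 4-parameter logistic model.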

The IC50 is the concentration at which inhibition is half-maximal. A higher IC50 goes with a need for much substance.

Structures are written as SMILES.

Regarding `C=CC(=O)N1CC2(C1)CN(c1nc3cc(-c4ccnn4C)ccc3c(-c3ccccc3Cl)c1C#N)CC2(F)F` [Example 17-2, 4-(2-chlorophenyl)-2-(8,8-difluoro-2-(2-propenoyl)-2,6-diazaspiro[3.4]octan-6-yl)-7-(1-methyl-1H-pyrazol-5-yl)-3-quinolinecarbonitrile], the IC50 in experiment [1] turned out to be 98 nM; in experiment [2], 1880 nM; in experiment [3], 3020 nM.
Consider `C=CC(=O)N1CC2(CCN(c3nc4cc(-n5ccnc5C)ccc4c(-c4ccccc4Cl)c3C#N)C2)C1` [Example 17-3, 4-(2-chlorophenyl)-7-(2-methyl-1H-imidazol-1-yl)-2-(2-(2-propenoyl)-2,6-diazaspiro[3.4]octan-6-yl)-3-quinolinecarbonitrile], for which the IC50 amounted to 36 nM in experiment [1], 684 nM in experiment [2] and 1880 nM in experiment [3].
The matching figures for `C=CC(=O)N1CC2(CCN(c3nc4cc(-n5ccnc5C)ccc4c(-c4ccccc4F)c3C#N)C2)C1` [Example 17-5, 4-(2-fluorophenyl)-7-(2-methyl-1H-imidazol-1-yl)-2-(2-(2-propenoyl)-2,6-diazaspiro[3.4]octan-6-yl)-3-quinolinecarbonitrile]: 70 nM, 1270 nM and 4430 nM.
The matching figures for `C=CC(=O)N1CC2(CCN(c3nc4cc(-n5cncc5C)ccc4c(-c4ccccc4F)c3C#N)C2)C1` [Example 17-6, 4-(2-fluorophenyl)-7-(5-methyl-1H-imidazol-1-yl)-2-(2-(2-propenoyl)-2,6-diazaspiro[3.4]octan-6-yl)-3-quinolinecarbonitrile]: 149 nM, 2190 nM and 4370 nM.
The like results for `C=CC(=O)N1CC2(CCN(c3nc4cc(-n5cncc5C)ccc4c(-c4ccccc4Cl)c3C#N)C2)C1` [Example 17-7, 4-(2-chlorophenyl)-7-(5-methyl-1H-imidazol-1-yl)-2-(2-(2-propenoyl)-2,6-diazaspiro[3.4]octan-6-yl)-3-quinolinecarbonitrile] were, in that order, 126 nM, 1800 nM and 3100 nM.
Turning to `C=CC(=O)N1CC2(CCN(c3nc4c(c(-c5cccc6cc(O)ccc56)c3C)CCN(C(C)C)C4)C2)C1` [Example 18-1, 1-(6-(4-(6-Hydroxy-1-naphthalenyl)-3-methyl-7-(2-propanyl)-5,6,7,8-tetrahydro-1,7-naphthyridin-2-yl)-2,6-diazaspiro[3.4]octan-2-yl)-2-propen-1-one], the half-maximal inhibitory concentration (IC50) in experiment [1] was 37 nM; in experiment [2], 23 nM; in experiment [3], over 5000 nM.
Consider `C=CC(=O)N1CC2(CCN(c3nc4c(c(-c5c(C)ccc6[nH]ncc56)c3C)CCN(C(C)C)C4)C2)C1` [Example 18-2, 1-(6-(3-methyl-4-(5-methyl-1H-indazol-4-yl)-7-(2-propanyl)-5,6,7,8-tetrahydro-1,7-naphthyridin-2-yl)-2,6-diazaspiro[3.4]octan-2-yl)-2-propen-1-one], for which the IC50 in experiment [1] is 268 nM; in experiment [2], 93 nM; in experiment [3] it was over 5000 nM.
The like results for `C=CC(=O)N1CC2(CCN(c3nc4c(c(-c5cc(O)cc6ccccc56)c3C)CCN(C(C)C)C4)C2)C1` [Example 18-3, 1-(6-(4-(3-hydroxy-1-naphthalenyl)-3-methyl-7-(2-propanyl)-5,6,7,8-tetrahydro-1,7-naphthyridin-2-yl)-2,6-diazaspiro[3.4]octan-2-yl)-2-propen-1-one] were, in that order, 229 nM, 137 nM and over 5000 nM.
The like results for `C=CC(=O)N1CC2(CCN(c3nc4c(c(-c5cccc6c5NCCC6)c3C)CCN(C(C)C)C4)C2)C1` [Example 18-5, 1-(6-(3-methyl-7-(2-propanyl)-4-(1,2,3,4-tetrahydro-8-quinolinyl)-5,6,7,8-tetrahydro-1,7-naphthyridin-2-yl)-2,6-diazaspiro[3.4]octan-2-yl)-2-propen-1-one] were, in that order, 990 nM, 546 nM and 15300 nM.
The like results for `C=CC(=O)N1CC2(CCN(c3nc4c(c(-c5cccc6cc(O)ccc56)c3C)CCN(C)C4)C2)C1` [Example 18-6, 1-(6-(4-(6-hydroxy-1-naphthalenyl)-3,7-dimethyl-5,6,7,8-tetrahydro-1,7-naphthyridin-2-yl)-2,6-diazaspiro[3.4]octan-2-yl)-2-propen-1-one] were, in that order, 80 nM, 70 nM and over 5000 nM.
For the compound `C=CC(=O)N1CC2(CCN(c3nc4c(c(-c5cccc6cc(O)ccc56)c3C)CCN(C3COC3)C4)C2)C1` [Example 18-7, 1-(6-(4-(6-hydroxy-1-naphthalenyl)-3-methyl-7-(3-oxetanyl)-5,6,7,8-tetrahydro-1,7-naphthyridin-2-yl)-2,6-diazaspiro[3.4]octan-2-yl)-2-propen-1-one], the concentration for half-maximal inhibition (IC50) in experiment [1] is 71 nM; in experiment [2] it was 64 nM; in experiment [3], over 5000 nM.
The matching figures for `C=CC(=O)N1CC2(CCN(c3nc4c(c(-c5cccc6cc(O)ccc56)c3C)CCN(C(C)COC)C4)C2)C1` [Example 18-8, 1-(6-(4-(6-hydroxy-1-naphthalenyl)-7-((2R)-1-methoxy-2-propanyl)-3-methyl-5,6,7,8-tetrahydro-1,7-naphthyridin-2-yl)-2,6-diazaspiro[3.4]octan-2-yl)-2-propen-1-one|1-(6-(4-(6-hydroxy-1-naphthalenyl)-7-((2S)-1-methoxy-2-propanyl)-3-methyl-5,6,7,8-tetrahydro-1,7-naphthyridin-2-yl)-2,6-diazaspiro[3.4]octan-2-yl)-2-propen-1-one]: 47 nM, 170 nM and over 5000 nM.
The matching figures for `C=CC(=O)N1CC2(CCN(c3nc4c(c(-c5cc(O)ccc5Cl)c3C)CCN(C(C)C)C4)C2)C1` [Example 18-9, 1-(6-(4-(2-chloro-5-hydroxyphenyl)-3-methyl-7-(2-propanyl)-5,6,7,8-tetrahydro-1,7-naphthyridin-2-yl)-2,6-diazaspiro[3.4]octan-2-yl)-2-propen-1-one]: 419 nM, 316 nM and over 5000 nM.
The matching figures for `C=CC(=O)N1CC2(CCN(c3nc4c(c(-c5cccc6cc(O)ccc56)c3C)CCN(C(C)=O)C4)C2)C1` [Example 18-10, 1-(6-(7-acetyl-4-(6-hydroxy-1-naphthalenyl)-3-methyl-5,6,7,8-tetrahydro-1,7-naphthyridin-2-yl)-2,6-diazaspiro[3.4]octan-2-yl)-2-propen-1-one]: 260 nM, 381 nM and over 5000 nM.
Consider `C=CC(=O)N1CC2(CCN(c3nc4c(c(-c5cc(O)ccc5Cl)c3C)CCN(C3CCCN(C)C3)C4)C2)C1` [Example 18-11, 1-(6-(4-(2-chloro-5-hydroxyphenyl)-3-methyl-7-((3R)-1-methyl-3-piperidinyl)-5,6,7,8-tetrahydro-1,7-naphthyridin-2-yl)-2,6-diazaspiro[3.4]octan-2-yl)-2-propen-1-one|1-(6-(4-(2-chloro-5-hydroxyphenyl)-3-methyl-7-((3S)-1-methyl-3-piperidinyl)-5,6,7,8-tetrahydro-1,7-naphthyridin-2-yl)-2,6-diazaspiro[3.4]octan-2-yl)-2-propen-1-one], for which the 50% inhibitory concentration (IC50) in experiment [1] is 167 nM; in experiment [2] it was 174 nM; in experiment [3] it was over 5000 nM.
The matching figures for `C=CC(=O)N1CC2(CCN(c3nc4c(c(-c5ccc(F)cc5F)c3C)CCN(c3scnc3C)C4)C2)C1` [Example 18-12, 1-(6-(4-(2,4-difluorophenyl)-3-methyl-7-(4-methyl-1,3-thiazol-5-yl)-5,6,7,8-tetrahydro-1,7-naphthyridin-2-yl)-2,6-diazaspiro[3.4]octan-2-yl)-2-propane-1-one]: 172 nM, 335 nM and 12500 nM.
The like results for `C=CC(=O)N1CC2(CCN(c3nc4c(c(-c5cc(O)ccc5F)c3C)CCN(c3scnc3C)C4)C2)C1` [Example 18-13, 1-(6-(4-(2-fluoro-5-hydroxyphenyl)-3-methyl-7-(4-methyl-1,3-thiazol-5-yl)-5,6,7,8-tetrahydro-1,7-naphthyridin-2-yl)-2,6-diazaspiro[3.4]octan-2-yl)-2-propen-1-one] were, in that order, 86 nM, 89 nM and over 5000 nM.
The like results for `C=CC(=O)N1CC2(CCN(c3nc4c(c(-c5c(C)ccc6[nH]ncc56)c3C)CCN(C3COC3)C4)C2)C1` [Example 18-14, 1-(6-(3-methyl-4-(5-methyl-1H-indazol-4-yl)-7-(3-oxetanyl)-5,6,7,8-tetrahydro-1,7-naphthyridin-2-yl)-2,6-diazaspiro[3.4]octan-2-yl)-2-propen-1-one] were, in that order, 376 nM, 167 nM and over 25000 nM.
For `C=CC(=O)N1CC2(CCN(c3nc4c(c(-c5c(F)ccc6[nH]ncc56)c3C)CCN(C(C)C)C4)C2)C1` [Example 18-15, 1-(6-(4-(5-fluoro-1H-indazol-4-yl)-3-methyl-7-(2-propanyl)-5,6,7,8-tetrahydro-1,7-naphthyridin-2-yl)-2,6-diazaspiro[3.4]octan-2-yl)-2-propen-1-one], the IC50 in experiment [1] is 720 nM; in experiment [2], 230 nM; in experiment [3], over 25000 nM.
